System: total cells in bronchoalveolar lavage fluid
Assay: Total cell count in bronchoalveolar lavage fluid, PM10D respiratory injury inflammation model
Type: in vivo, Balb/c mice
Details: vitamin B5 inhaled at 6 mg/kg or more, compared to the induced group and the oral administration group
Experimental: As an experimental animal, Balb/c mice (male, 6 weeks old, body weight of 15 to 17 g) were purchased from Coretech after receiving approval from the Institutional Animal Care and Use Committee (IACUC). After acclimatization for one week in the breeding room of the KT&G Bio-Efficacy Evaluation Center (temperature 23±2° C., humidity 50±10%, 12-hour light/dark cycle), the mice were used in the experiment. A PM10D mixture was prepared by diluting 3 mg/mL of particulate matter 10 (hereinafter PM10) [ERM-CZ120, Sigma Aldrich, St. Louis, MO, USA] and 0.6 mg/mL of diesel particulate matter (hereinafter DEP) [NIST-2975, Sigma Aldrich, St. Louis, MO, USA] in 1% Alum (Aluminium Hydroxide, 239186, Sigma Aldrich, USA). […] The exposure amount of aerosol (mg/L) was calculated as a dose (mg/kg) using a calculation formula based on a prior art (Alexander et al., Inhal Toxicol. 2008 October; 20(13):1179-89.). […] After centrifugation (1500 RPM/4° C./10 min) of the obtained bronchoalveolar lavage fluid, the supernatant was stored in an ultra-low temperature freezer (−70° C.) to measure cytokines, and cells isolated from the bronchoalveolar lavage fluid were treated with ammonium-chloride-potassium buffer (ACK, A10492-01, Gibco, NY, USA) solution for 10 minutes to lyse red blood cells, and then washed again with phosphate buffered saline, and the total cell count was measured using a hematocytometer. […]

CC(C)(CO)[C@@H](O)C(=O)NCCC(=O)O [vitamin B5, pantothenic acid]
Total cell count in bronchoalveolar lavage fluid (result in words): reduced
